Data as given in article PMC5412445, “ZeGlobalTox: An Innovative Approach to Address Organ Drug Toxicity Using Zebrafish” (International Journal of Molecular Sciences, 2017).
“Also recorded” adds a separate entry of the source. Where a name gives a salt, the structure may show the parent alone.

What was measured:
[1] = tested on: wild type zebrafish embryos; assay: in vivo; type: in vivo; conditions: embryos incubated 3 to 96 hpf; 5 logarithmic concentrations 0.1 µM to 1 mM; 1% DMSO
Excerpt: (§1) Several issues were considered when planning the experimental protocol. The main concern was that drug-induced mortality and/or developmental toxicity (teratogenicity) could mask possible organ-toxicities appearing later in development. […] This preliminary assay allowed for the identification of non-mortal/non-teratogenic concentrations—no observed effect concentration (NOEC)—to use in the following assays. The hypothesis is that NOEC could affect organ physiology (organ toxicity), while uncoupled from putative developmental toxicity side-effects affecting organ development or function. Another consideration was to start drug incubations at 96 hours post fertilization (hpf), when the analysed organs are close to or already developed (Figure 1B). The overall aim is to understand the drug impact on organ physiology and function rather than early embryogenesis. The third consideration was to organize the sequential organ evaluation during the experimental and drug incubation time.
(§2) 1% DMSO, which is the constant solvent concentration in all conditions, was used as the negative control.
(§3) Thus, 20 wild type (wt) zebrafish embryos per condition were incubated with tested compounds from 3 to 96 hpf. The test was performed in 5 logarithmic concentrations per drug (from 0.1 µM to 1 mM). Each larva was analysed for mortality, body deformity, edema, tail detachment, pigmentation, heart activity, heart edema, and motor activity. […] DMSO 1% was used as the negative control in all experiments.

zebrafish larvae [2] = assay: ZeGlobalTox neurotoxicity evaluation (locomotion, light/dark trial); type: in vivo, zebrafish (Danio rerio); conditions: 120 hpf, drug from 96 hpf at NOEC (MPTP 100 µM, paracetamol 2600 µM)
Procedure: By 5 dpf, zebrafish larvae perform spontaneous swimming and their visual system is fully developed. Therefore, behavioural experiments were performed from this time point (Figure 4A). Deviations in total distance moved, in response to photo-visual stimulation, were analysed as a direct measurement of neurotoxicity. Thus, drugs increasing or decreasing total distance moved when compared to the DMSO-only group were considered neurotoxic. As the positive neurotoxic control we used MPTP, which has been identified as a neurotoxic drug in humans and zebrafish.
Immediately after heart video acquisition, larvae are washed with E3 medium to remove tricaine methanesulfonate from the solution. Fresh drug solution is added and the larvae are transferred individually in a volume of 150 µL to 96 well plates.
Neurotoxicity is analysed at 120 hpf by locomotion assessment using the EthoVision XT 11.5 software and the DanioVision device from Noldus Information Technologies, Wageningen, The Netherlands. This closed system consists of a camera placed above a chamber with circulating water and a temperature sensor set at 28 °C. The 96-well plates are placed in the chamber, which can then be illuminated with white light using the software. Larvae are then left for 20 min under these conditions and with the lights on to help their acclimation. Finally, larvae locomotion is measured during 50′ under the following light/dark conditions: 10′ darkness-10′ Light-10′ darkness-10′ Light-10′ darkness. Total distance moved (in mm) is acquired under this light/dark trial. Due to circadian rhythms, all locomotion assays were performed from 13:00 pm onwards to ensure steady activity of the zebrafish.
Neurotoxicity is assessed by comparing locomotion differences among the tested compounds (solved in DMSO) and the negative control group (DMSO 1%-only).

humans = conditions: known toxicity in humans, ref TOXNET (HSDB), Side effects (EMBL), drugs.com, cited from earlier work; for Neurotoxicity (toxicity in humans): [22],[30],[31],[34],[35]; for Cardiotoxicity (toxicity in humans) / Hepatotoxicity (toxicity in humans): ema.europa; for Cardiotoxicity (toxicity in humans): [19],[20],[21]; for Hepatotoxicity (toxicity in humans): [24],[26],[27],[32],[33]
zebrafish larvae liver = assay: ZeGlobalTox hepatotoxicity: Oil Red O staining (steatosis and yolk lipid accumulation); conditions: 132 hpf; for Percentage of larvae presenting steatosis: 36 h drug incubation at NOEC (EtOH 2%, MPTP 100 µM), DMSO 24.44%
Procedure: In order to assess drugs producing steatosis and yolk lipid accumulation, and subsequent to the RFP filtered images being acquired, zebrafish larvae were stained with Oil Red O. Larvae and were sorted into steatosis positive or negative, yolk lipid accumulation, or both (see materials and methods).
For the ZeGlobalTox assay, fertilized Tg(cmlc2:GFP; fabp10:RFP; ela31:EGFP) zebrafish embryos were collected in E3 medium (5 mM NaCl, 0.17 mM KCl, 0.33 mM CaCl2, 0.33 mM, MgSO4) in Petri dishes. At 3, 24, and 48 hpf, dishes were observed and all not fertilized, abnormal, or coagulated eggs were discarded. At 96 hpf, 20 larvae per condition were incubated with the NOECs from the different drugs and allowed to develop until 132 hpf at 28.5 °C.
After 36 h of drug incubation (132 hpf), embryos are fixed in 4% paraformaldehyde (158127-500G, Sigma-Aldrich, Saint Louis, MO, USA) for 2–4 h at room temperature (RT) and then are 3× washed with PBS.
In order to detect the presence of steatosis and yolk lipid retention, zebrafish larvae were stained with Oil Red O (O0625-25G, Sigma-Aldrich, Saint Louis, MO, USA) as described in [77]. Briefly, the skin pigment from fixed larvae is removed by incubating with bleaching solution (for 10 mL: 6 mL H2O, 0.25 mL 20× SSC, 0.5 mL formamide, 3.3 mL H2O2) during 20 min at RT. Then, the larvae are 5× washed with PBS. Bleached embryos are first submerged in 85% Propylene glycol (PG) (134368-1L, Sigma-Aldrich, Saint Louis, MO, USA) for 10 min and then in 100% PG for another 10 min before staining them with Oil Red O 0.5% in 100% PG (overnight, at RT and with gentle rocking). Oil Red O stained embryos are washed in 100% PG for 30 min, 50 min in 85% PG, and 40 min in 85% PG with an equal volume of PBS. Finally, embryos are washed 1× with PBS before adding 80% glycerol (G7757-500ML, Sigma-Aldrich, Saint Louis, MO, USA). Bright field images are taken to detect both steatosis and yolk lipid accumulation. […] Yolk lipid retention is considered positive when a red strong signal is observed in the yolk area (Figure 5F).
DMSO 1% treated larvae were used as the negative control group.

zebrafish larvae [3] = tested on: zebrafish larvae; set-up: method as in PMID 16408054, PMID 22744888; conditions: ref [50],[57]; cited from earlier work
in vivo = type: in vivo; conditions: zebrafish, in vivo; mortality; embryos incubated 3 to 96 hpf; 5 logarithmic concentrations 0.1 µM to 1 mM; 1% DMSO
Excerpt: as §1, §2, §3

zebrafish larvae heart = assay: ZeGlobalTox cardiotoxicity evaluation (heart video, ZeCardio software); type: in vivo, zebrafish (Danio rerio); conditions: 100 hpf, 4 h after drug incubation at NOEC (haloperidol 10 µM)
Procedure: Four cardiac parameters were evaluated to assess whether a compound was cardiotoxic: heart rate (beats per minute, BPM), QTc prolongation, ejection fraction (EJF), and cardiac arrest. […] 1% DMSO was used as the negative control.
Cardiotoxicity evaluation was performed from 96 hpf, when the zebrafish heartbeat is already stabilised, so the analysis might not be altered by unstable beating. Zebrafish hearts were video-recorded at 4 h after drug incubation (100 hpf) and analysed using the ZeCardio® β software (Figure 3A).
After 4 h of drug incubation (100 hpf), zebrafish larvae were anesthetized by immersion in […] tricaine methanesulfonate (A4050, Sigma-Aldrich, Saint Louis, MO, USA)/E3 solution. […] The 1% DMSO treated embryos were used as negative cardiotoxic controls. Embryos were positioned in an agarose based mold to allow their appropriate orientation under the fluorescence stereo microscope (Olympus MVX10). Individual fluorescent hearts were recorded during 60 s each (Figure 6A). Videos were acquired with a high-speed recording camera (Hamamatsu C11440 ORCA-flash 2.8) and analysed with the ZeCardio® β software to extract different cardiac parameters—heart rate, cardiac arrest, QTc prolongation, and Ejection Fraction (EJF) (Figure 6B).
ZeCardio® β software, developed by ZeClinics and currently in β status, provides a graphical user interface (GUI) that facilitates the semi-automatic analysis of living heart videos. Interactive analysis of the different parameters functions as follows: The user draws a line along the heart axis, from ventricle to atrium, to initiate the calculation. […] All lines can be subjected to modification of their angles and lengths.
Heart beat frequency for each chamber is detected and frequencies are presented in the GUI as a mean. A plot distribution is used for assessing beat stability over time (Figure 6F). In the same fashion, chamber specific cardiac arrest is measured as the longest beating pause (Figure 6H). No beating chambers and/or incorrect bpm can be manually flagged when detected.
For calculation of the QTc interval (linearly corrected QT interval), the Framingham formula (QTc = QT + 0.154 (1 − RR)) was adjusted for zebrafish as QTc = QT + 0.154 (2.66 − RR). RR = 6.6 ms/measured bpm is applied (Figure 6G). Finally, the Ejection Fraction, calculated as the maximal dilatation (the diastolic diameter, DD) versus the maximal contraction (systolic diameter, SD) is measured in % as EF% = (DD − SD)/DD*100 (Figure 6G). Computed values for the described parameters were exported in .csv format (Figure 6H).

Row | SMILES | 96 hpf NOEC [1] [µM] | Motility (total distance moved) compared to DMSO (zebrafish larvae [2]) | Neurotoxicity (toxicity in humans) (humans) | Cardiotoxicity (toxicity in humans) (humans) | Hepatotoxicity (toxicity in humans) (humans) | Percentage of larvae presenting steatosis (zebrafish larvae liver) [%] | Impact on the heart rate in zebrafish larvae (zebrafish larvae [3]) | Percentage of larvae presenting yolk lipid retention (zebrafish larvae liver; 36 h drug incubation at NOEC (paracetamol 2600 µM), DMSO 22.22%) [%] | 96 hpf LOEC [1] [µM] | LC50 (in vivo) [µM] | Heart rate (beats per minute) compared to DMSO-only (zebrafish larvae heart) | Longest cardiac arrest compared to DMSO-only (zebrafish larvae heart) | QTc interval compared to DMSO-only (zebrafish larvae heart)
1 | CNCC(O)c1ccc(O)c(O)c1.Cl (racemic) [(±)-Epinephrine HCL, (±)-epinephrine hydrochloride] | 1000.00 | increased motility | Toxic ^1,2,3 | Toxic ^1,2,3 | Safe | 80 |  |  |  |  |  |  | 
2 | CC(=O)Nc1ccc(O)cc1 [Acetaminophen] |  | Decreased motility | Toxic ^2,3 | Toxic ^1,2,3 | Toxic ^1,2,3 [24] |  | no impact | 60 |  |  |  |  | 
3 | CN1CC=C(c2ccccc2)CC1 [MPTP, 1-methyl-4-phenyl-1,2,3,6-tetrahydropyridine] |  | Decreased motility | Toxic [22, 30, 31] |  |  | 50 |  |  |  |  |  |  | 
4 | CC(C)NCC(O)COc1cccc2[nH]ccc12 (stereo not drawn) [Pindolol, pindolol] |  | increased motility | Toxic ^2,3 | Toxic ^1,2,3 | Safe |  |  |  | 1000 | > 1000 | decreased the heart rate | Longer cardiac arrest | QTc interval prolongation; also recorded: increased QTc
5 | CN1CCN(CCCN2c3ccccc3Sc3ccc(C(F)(F)F)cc32)CC1 [Trifluoperazine HCL, trifluoperazine hydrochloride] | 10 | Decreased motility | Toxic ^1,2,3 | Toxic ^1,2,3 | Toxic ^1,2,3 | 85 |  |  | 100 | 31.6 | decreased the heart rate | Longer cardiac arrest | 
6 | CC[C@]1(O)C[C@H]2CN(CCc3c([nH]c4ccccc34)[C@@](C(=O)OC)(c3cc4c(cc3OC)N(C=O)[C@H]3[C@@](O)(C(=O)OC)[C@H](OC(C)=O)[C@]5(CC)C=CCN6CC[C@]43[C@@H]65)C2)C1 [Vincristine, vincristine] |  | increased motility | Toxic ^1,2,3 | Toxic ^1,2,3 | Safe |  |  |  | 100 | 31.6 | decreased the heart rate | Longer cardiac arrest | 
